For the first assay, the target named is T1, hNaV1.7 (Homo sapiens, UniProt Q15858).
T1 construct: expressed in transfected cells
T1 sequence (Q15858 whole entry): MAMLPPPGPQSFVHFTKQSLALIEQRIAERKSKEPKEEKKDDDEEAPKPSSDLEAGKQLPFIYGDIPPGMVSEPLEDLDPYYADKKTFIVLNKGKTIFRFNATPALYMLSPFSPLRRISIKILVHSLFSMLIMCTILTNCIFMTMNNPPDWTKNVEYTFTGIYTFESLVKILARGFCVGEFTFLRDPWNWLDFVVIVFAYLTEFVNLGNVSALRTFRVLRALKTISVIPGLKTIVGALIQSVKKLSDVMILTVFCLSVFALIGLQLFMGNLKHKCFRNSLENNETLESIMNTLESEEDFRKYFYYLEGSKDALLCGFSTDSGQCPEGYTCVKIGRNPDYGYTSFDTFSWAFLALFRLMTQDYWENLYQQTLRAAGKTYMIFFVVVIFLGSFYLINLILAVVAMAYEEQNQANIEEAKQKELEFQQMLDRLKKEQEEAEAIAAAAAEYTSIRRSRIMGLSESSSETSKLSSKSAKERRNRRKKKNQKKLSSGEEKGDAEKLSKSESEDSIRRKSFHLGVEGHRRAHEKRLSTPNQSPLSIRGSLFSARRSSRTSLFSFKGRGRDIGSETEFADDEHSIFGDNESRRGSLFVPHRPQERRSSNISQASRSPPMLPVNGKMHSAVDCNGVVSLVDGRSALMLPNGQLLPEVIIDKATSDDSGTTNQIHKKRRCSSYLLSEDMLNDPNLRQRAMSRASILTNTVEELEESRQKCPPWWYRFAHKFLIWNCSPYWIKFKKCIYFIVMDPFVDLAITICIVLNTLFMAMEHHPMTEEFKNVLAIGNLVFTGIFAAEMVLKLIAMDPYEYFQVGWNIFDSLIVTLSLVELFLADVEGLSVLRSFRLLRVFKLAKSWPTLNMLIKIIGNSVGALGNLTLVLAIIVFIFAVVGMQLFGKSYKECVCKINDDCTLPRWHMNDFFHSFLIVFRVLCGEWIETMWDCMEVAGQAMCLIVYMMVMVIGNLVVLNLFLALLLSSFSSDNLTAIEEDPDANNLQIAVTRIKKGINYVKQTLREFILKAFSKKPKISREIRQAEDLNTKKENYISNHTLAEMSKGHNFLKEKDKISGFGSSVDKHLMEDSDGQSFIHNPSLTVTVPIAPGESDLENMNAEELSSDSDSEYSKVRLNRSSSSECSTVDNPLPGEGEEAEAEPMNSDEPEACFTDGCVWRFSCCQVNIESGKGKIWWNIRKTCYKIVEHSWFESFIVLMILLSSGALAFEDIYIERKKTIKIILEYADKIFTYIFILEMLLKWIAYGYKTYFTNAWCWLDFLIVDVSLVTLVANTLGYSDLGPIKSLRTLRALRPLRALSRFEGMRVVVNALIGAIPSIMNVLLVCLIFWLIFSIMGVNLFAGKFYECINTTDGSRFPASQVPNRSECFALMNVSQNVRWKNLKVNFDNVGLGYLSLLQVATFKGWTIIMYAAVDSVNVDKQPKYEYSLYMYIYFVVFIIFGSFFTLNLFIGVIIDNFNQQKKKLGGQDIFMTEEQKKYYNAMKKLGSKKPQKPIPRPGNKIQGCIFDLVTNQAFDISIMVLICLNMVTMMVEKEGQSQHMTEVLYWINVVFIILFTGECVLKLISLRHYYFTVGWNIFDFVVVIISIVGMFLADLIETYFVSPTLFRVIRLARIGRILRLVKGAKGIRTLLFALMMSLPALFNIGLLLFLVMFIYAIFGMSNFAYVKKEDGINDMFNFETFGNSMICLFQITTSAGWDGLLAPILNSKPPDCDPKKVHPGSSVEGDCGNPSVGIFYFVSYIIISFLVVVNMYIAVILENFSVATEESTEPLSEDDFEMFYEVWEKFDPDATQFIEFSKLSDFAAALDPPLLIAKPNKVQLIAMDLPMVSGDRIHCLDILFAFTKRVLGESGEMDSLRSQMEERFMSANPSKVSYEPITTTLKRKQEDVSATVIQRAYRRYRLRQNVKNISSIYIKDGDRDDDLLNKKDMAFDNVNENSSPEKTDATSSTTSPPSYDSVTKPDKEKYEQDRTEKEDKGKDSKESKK
T1 sequence (Q07699 19-218 partner): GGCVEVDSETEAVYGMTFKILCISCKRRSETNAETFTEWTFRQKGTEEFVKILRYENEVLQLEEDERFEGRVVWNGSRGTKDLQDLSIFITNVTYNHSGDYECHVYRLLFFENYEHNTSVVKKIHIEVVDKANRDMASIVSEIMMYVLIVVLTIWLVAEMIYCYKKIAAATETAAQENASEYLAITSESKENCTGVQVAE
T1 sequence (O60939 30-215 partner): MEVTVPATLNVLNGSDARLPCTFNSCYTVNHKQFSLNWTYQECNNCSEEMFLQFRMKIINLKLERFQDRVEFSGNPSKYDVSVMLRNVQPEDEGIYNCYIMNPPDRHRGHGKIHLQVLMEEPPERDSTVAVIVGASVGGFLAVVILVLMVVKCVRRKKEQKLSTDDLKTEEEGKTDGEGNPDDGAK
Put plainly: FDSS Membrane Potential In-Vitro Assay. Format: cell-based. To be noted: stimulation with veratridine and scorpion venom, read-out: NaV1.7 IC50.
T2 sequence (Q15858 whole entry): as the sequence (Q15858 whole entry) above
T2 sequence (Q07699 19-218 partner): as the sequence (Q07699 19-218 partner) above
T2 sequence (O60939 30-215 partner): as the sequence (O60939 30-215 partner) above
Consider `O=C(O)CNC(=O)c1cccc(-c2cc(Cl)ccc2Oc2cc(F)c(S(=O)(=O)Nc3ncns3)cc2Cl)n1` [Compound 7, 2-(6-(2-(4-(N-(1,2,4-thiadiazol-5-yl)sulfamoyl)-2-chloro-5-fluorophenoxy)-5-chlorophenyl)picolinamido)acetic acid], for which the IC50 – broadly, the point on the concentration scale where inhibition reaches its midpoint – lay in the range of 130 to 1000 nM.

On to `CCOC(=O)CNCCCc1cc(Cl)ccc1Oc1cc(F)c(S(=O)(=O)Nc2nccs2)cc1Cl` [Compound 35, ethyl 2-((3-(5-chloro-2-(2-chloro-5-fluoro-4-(N-(thiazol-2-yl)sulfamoyl)phenoxy)phenyl)propyl)amino)acetate], for which the concentration for half-maximal inhibition (IC50) fell in the range of 100 to 500 nM.

As for `O=S(=O)(Nc1nccs1)c1cc(Cl)c(Oc2ccc(Cl)cc2CCCNc2cn[nH]c2)cc1F` [Compound 42, 4-(2-(3-((1H-pyrazol-4-yl)amino)propyl)-4-chlorophenoxy)-5-chloro-2-fluoro-N-(thiazol-2-yl)benzenesulfonamide], the half-maximal inhibitory concentration (IC50) fell in the range of 1000 to 20000 nM.

In the case of `O=C(O)CCNCCCc1cc(Cl)ccc1Oc1cc(F)c(S(=O)(=O)Nc2nccs2)cc1F` [Compound 43, 3-((3-(5-chloro-2-(2,5-difluoro-4-(N-(thiazol-2-yl)sulfamoyl)phenoxy)phenyl)propyl)amino)propanoic acid], the IC50 fell in the range of 100 to 500 nM.

On to `O=S(=O)(Nc1cscn1)c1cc(Cl)c(Oc2ccc(Cl)cc2CCCNc2cc[nH]n2)cc1F` [Compound 45, 4-(2-(3-((1H-pyrazol-3-yl)amino)propyl)-4-chlorophenoxy)-5-chloro-2-fluoro-N-(thiazol-4-yl)benzenesulfonamide], for which the 50% inhibitory concentration (IC50) was in the range of 1000 to 20000 nM.

In the case of `CNC(=O)CNCCCc1cc(Cl)ccc1Oc1cc(F)c(S(=O)(=O)Nc2cscn2)cc1Cl` [Compound 46, 2-((3-(5-chloro-2-(2-chloro-5-fluoro-4-(N-(thiazol-4-yl)sulfamoyl)phenoxy)phenyl)propyl)amino)-N-methylacetamide], the IC50 was in the range of 100 to 500 nM.

Turning to `O=S(=O)(Nc1cscn1)c1cc(Cl)c(Oc2ccc(Cl)cc2CCCN2CCc3[nH]ncc3C2)cc1F` [Compound 48, 5-chloro-4-(4-chloro-2-(3-(6,7-dihydro-1H-pyrazolo[4,3-c]pyridin-5(4H)-yl)propyl)phenoxy)-2-fluoro-N-(thiazol-4-yl)benzenesulfonamide], the IC50 was 500 to 1000 nM.

For the compound `CC(C)CCOC(=O)CNCCCc1cc(Cl)ccc1Oc1cc(F)c(S(=O)(=O)Nc2nccs2)cc1Cl` [Compound 50, isopentyl 2-((3-(5-chloro-2-(2-chloro-5-fluoro-4-(N-(thiazol-2-yl)sulfamoyl)phenoxy)phenyl)propyl)amino)acetate], the IC50 was in the range of 500 to 1000 nM.

As to `CC(C)OC(=O)CNCCCc1cc(Cl)ccc1Oc1cc(F)c(S(=O)(=O)Nc2nccs2)cc1Cl` [Compound 51, isopropyl 2-((3-(5-chloro-2-(2-chloro-5-fluoro-4-(N-(thiazol-2-yl)sulfamoyl)phenoxy)phenyl)propyl)amino)acetate], the concentration for half-maximal inhibition (IC50) lay in the range of 500 to 1000 nM.

Regarding `O=S(=O)(Nc1cscn1)c1cc(Cl)c(Oc2ccc(Cl)cc2CCCN2CCn3ccnc3C2)cc1F` [Compound 55, 5-chloro-4-(4-chloro-2-(3-(5,6-dihydroimidazo[1,2-a]pyrazin-7(8H)-yl)propyl)phenoxy)-2-fluoro-N-(thiazol-4-yl)benzenesulfonamide], the IC50 lay in the range of 100 to 500 nM.

On to `O=S(=O)(Nc1nccs1)c1cc(Cl)c(Oc2ccc(Cl)cc2-c2cnn3c2NCCC3)cc1F` [Compound 57, 5-chloro-4-(4-chloro-2-(4,5,6,7-tetrahydropyrazolo[1,5-a]pyrimidin-3-yl)phenoxy)-2-fluoro-N-(thiazol-2-yl)benzenesulfonamide], for which the IC50 lay in the range of 100 to 500 nM.

With `CS(=O)(=O)CCNCCCc1cc(Cl)ccc1Oc1cc(F)c(S(=O)(=O)Nc2nccs2)cc1Cl` [Compound 59, 5-chloro-4-(4-chloro-2-(3-((2-(methylsulfonyl)ethyl)amino)propyl)phenoxy)-2-fluoro-N-(thiazol-2-yl)benzenesulfonamide], the 50% inhibitory concentration (IC50) was in the range of 100 to 500 nM.

Consider `CCOC(=O)CN(C)CCCc1cc(Cl)ccc1Oc1cc(F)c(S(=O)(=O)Nc2nccs2)cc1Cl` [Compound 68, ethyl 2-((3-(5-chloro-2-(2-chloro-5-fluoro-4-(N-(thiazol-2-yl)sulfamoyl)phenoxy)phenyl)propyl)(methyl)amino)acetate], for which the IC50 was in the range of 500 to 1000 nM.

A further assay concerns the target T2, NaV1.7 (Homo sapiens, UniProt Q15858).
T2 construct: expressed in transfected cells
Put plainly: Patchliner Electrophysiological In-Vitro Assay (NaV1.7). Format: cell-based. The conditions noted are these: Patchliner patch clamp, HEK293, holding at V1/2. On the procedure: In vitro assays were performed in recombinant cell line that stably express a heterotrimeric protein of interest from an introduced nucleic acid encoding the alpha subunit (hNav1.7, SCN9A), the beta subunit (SCNB1) and the beta subunit (SCNB2). The cell line was engineered using Human Embryonic Kidney 293 cells as host background. Additional cell lines stably expressing recombinant Nav1.7 or Nav1.5 alpha subunit alone or in combination with various beta subunits can also be used in in-vitro assays.
The recording of sodium current from stable HEK293 cell lines expressing NaV1.7 or NaV1.5 was done on a Patchliner® instrument, Nanion Technologies. The Patchliner® is a fully automated bench-top patch clamp platform and can record simultaneously from up to eight single cells with GΩ seals.
For patch-clamp experiments, cells were grown under standard culturing conditions in Dulbecco's Modified Eagles medium supplemented with 10% fetal bovine serum, glutamine and HEPES. Cells were harvested and kept in suspension for up to 4 hours with no significant change in quality or ability to patch. Whole cell patch clamp recordings were conducted according to Nanion's standard procedure for the Patchliner®. Experiments were conducted at room temperature.
Voltage protocols were designed to establish: 1) peak current amplitude (Imax), 2) test potential (Vmax) and 3) half-inactivation potential (V1/2) for each of the eight individual cells. To determine V1/2, a standard steady-state inactivation protocol was executed using a series of fifteen 500 ms depolarizing pre-pulses in 10 mV increments (starting at −130 mV) and immediately followed by a 10 ms test pulse to Vmax. To estimate test compound affinity to the inactivated state of sodium channel (Ki), the holding potential for each cell was set automatically to the V1/2 calculated from a steady-state inactivation data. The current was activated with the following voltage protocol: holding at V1/2 for 2-5 seconds, return to the −120 mV for 5-10 ms to relieve fast inactivation, stepping to test potential (Vmax) for 10-20 ms. This voltage protocol was repeated every 10 seconds to establish the baseline with 2-3 buffer additions followed by the test compound addition. The dose-dependent inhibition was analyzed using Nanion's Data Analysis Package.
On the technique in general: In patch-clamp work, channel activity is measured electrically.
`COC(=O)CNCCCc1cc(Cl)ccc1Oc1cc(F)c(S(=O)(=O)Nc2cscn2)cc1Cl` [Compound 24, methyl 2-((3-(5-chloro-2-(2-chloro-5-fluoro-4-(N-(thiazol-4-yl)sulfamoyl)phenoxy)phenyl)propyl)amino)acetate]: the IC50 is less than 100 nM.

Regarding `O=C(O)CCNCCCc1cc(F)ccc1Oc1cc(F)c(S(=O)(=O)Nc2cscn2)cc1Cl` [Compound 25, 3-((3-(2-(2-chloro-5-fluoro-4-(N-(thiazol-4-yl)sulfamoyl)phenoxy)-5-fluorophenyl)propyl)amino)propanoic acid], the IC50 is 100 to 1000 nM.

Consider `O=C(O)CCNCCCc1cc(Cl)ccc1Oc1cc(F)c(S(=O)(=O)Nc2nccs2)cc1Cl` [Compound 29, 3-((3-(5-chloro-2-(2-chloro-5-fluoro-4-(N-(thiazol-2-yl)sulfamoyl)phenoxy)phenyl)propyl)amino)propanoic acid], for which the half-inhibitory concentration (IC50) is less than 100 nM.

As to `O=S(=O)(Nc1cscn1)c1cc(Cl)c(Oc2ccc(Cl)cc2-c2cnn3c2NCCC3)cc1F` [Compound 33, 5-chloro-4-(4-chloro-2-(4,5,6,7-tetrahydropyrazolo[1,5-a]pyrimidin-3-yl)phenoxy)-2-fluoro-N-(thiazol-4-yl)benzenesulfonamide], the IC50 fell in the range of 100 to 1000 nM.

Take `CCCCCOC(=O)N(CCCc1cc(Cl)ccc1Oc1cc(F)c(S(=O)(=O)Nc2nccs2)cc1Cl)CC(=O)O` [Compound 53, 2-((3-(5-chloro-2-(2-chloro-5-fluoro-4-(N-(thiazol-2-yl)sulfamoyl)phenoxy)phenyl)propyl)((pentyloxy)carbonyl)amino)acetic acid]: the IC50 was less than 100 nM.

On to `NC(=O)CNCCCc1ccccc1Oc1cc(F)c(S(=O)(=O)Nc2cscn2)cc1Cl` [Compound 60, 2-((3-(2-(2-chloro-5-fluoro-4-(N-(thiazol-4-yl)sulfamoyl)phenoxy)phenyl)propyl)amino)acetamide], for which the concentration for half-maximal inhibition (IC50) was less than 100 nM.

`C#CCN(CCCc1cc(Cl)ccc1Oc1cc(F)c(S(=O)(=O)Nc2cscn2)cc1Cl)CC(=O)O` [Compound 61, 2-((3-(5-chloro-2-(2-chloro-5-fluoro-4-(N-(thiazol-4-yl)sulfamoyl)phenoxy)phenyl)propyl)(prop-2-yn-1-yl)amino)acetic acid]: the half-inhibitory concentration (IC50) was less than 100 nM.

For `C=CCN(CCCc1cc(Cl)ccc1Oc1cc(F)c(S(=O)(=O)Nc2nccs2)cc1Cl)CC(=O)O` [Compound 62, 2-(allyl(3-(5-chloro-2-(2-chloro-5-fluoro-4-(N-(thiazol-2-yl)sulfamoyl)phenoxy)phenyl)propyl)amino)acetic acid], the IC50 is less than 100 nM.

For `NC(=O)CNCCCc1cc(Cl)ccc1Oc1cc(F)c(S(=O)(=O)Nc2nccs2)cc1Cl` [Compound 63, 2-((3-(5-chloro-2-(2-chloro-5-fluoro-4-(N-(thiazol-2-yl)sulfamoyl)phenoxy)phenyl)propyl)amino)acetamide], the IC50 was less than 100 nM.

For the compound `CC#CCN(CCCc1cc(Cl)ccc1Oc1cc(F)c(S(=O)(=O)Nc2nccs2)cc1Cl)CC(=O)O` [Compound 64, 2-(but-2-yn-1-yl(3-(5-chloro-2-(2-chloro-5-fluoro-4-(N-(thiazol-2-yl)sulfamoyl)phenoxy)phenyl)propyl)amino)acetic acid], the IC50 was less than 100 nM.
